Measurements taken from patent publication US20090054312A1, “SMIPs: Small molecule inhibitors of p27 depletion in cancers and other proliferative diseases” (priority 2007, published 2009).
Counter-ions that a name gives are not always drawn. Like-named read-outs stand apart in the source and are kept apart here.

Tested on: p27 levels in LNCaP-S14 cells
Experiment: p27 immunofluorescence screening assay in LNCaP-S14 cells; also: test concentration or dose not given here
[1] = Table 1, compounds showing SMIP activity in the secondary screen, p27-positive cells, cell line not given
[2] = Table 1, standard deviations from plate mean, cell line not given
[3] = […], p27-positive cells, cell line not given

Compound	% positive [1]	Z score [2]	% positive [3]	% positive	Z score
C=C(CC)C(=O)c1ccc(OCC(=O)O)c(Cl)c1Cl [Ethacrynic acid, reference compound]	18.71%	10.2724	–	–	–
COc1ccc(S(=O)(=O)Nc2ccc3[nH]c(C(C)(C)C)cc3c2)cc1 [N-(2-tert-butyl-(1H)-indol-5-yl)-4-methoxybenzenesulfonamide]	29.15%	17.8415	–	–	–
CS(=O)(=O)c1ccc(/C=C/C(=O)Nc2cccc(C(F)(F)F)c2)cc1 [3-[4-(methylsulfonyl)phenyl]-N-[3-trifluoromethyl]phenyl]-(2E)-propenamide]	41.56%	26.8318	–	–	–
CCC1(C2OC(C3OC(O)(CO)C(C)CC3C)CC2C)CCC(C2(C)CCC3(CC(O)C(C)C(C(C)C(OC)C(C)C(=O)[O-])O3)O2)O1.[Na+] (stereo not shown) [Monensin, sodium salt, sodium 4-[2-[5-ethyl-5-[5-[6-hydroxy-6-(hydroxymethyl)-3,5-dimethyl-oxan-2-yl]-3-methyl-oxolan-2-yl]oxolan-2-yl]-9-hydroxy-2,8-dimethyl-1,6-dioxaspiro[4.5]decan-7-yl)-3-methoxy-2-methyl-pentanoate, reference compound]	–	33.5974	50.90%	–	–
CCCCC(CC)CNC(=N)NC(=N)NCCCCCCNC(=N)NC(=N)NCC(CC)CCCC (stereo not shown) [Alexidine hydrochloride, reference compound]	17.48%	9.38	–	–	–
Cc1cc(C2CCCCC2)n(O)c(=O)c1 [Ciclopirox olamine, reference compound]	28.54%	17.3996	–	–	–
CC[C@@H](C(=O)[C@@H](C)[C@@H](O)[C@H](C)[C@@H]1O[C@@H]([C@@H](CC)C(=O)O)CC[C@@H]1C)[C@H]1O[C@]2(C=C[C@@H](O)[C@]3(CC[C@@](C)([C@H]4CC[C@](O)(CC)[C@H](C)O4)O3)O2)[C@H](C)C[C@@H]1C [Salinomycin, sodium, reference compound]	–	37.4159	56.17%	–	–
CCN(CC)CCCC(C)Nc1c2ccc(Cl)cc2nc2ccc(OC)cc12 (stereo not shown) [Quinacrine hydrochloride, reference compound]	36.17%	22.9232	–	–	–
C=C(NC(=O)C(=C)NC(=O)c1csc(C2=N[C@@H]3c4csc(n4)[C@H]4NC(=O)c5csc(n5)[C@H]([C@](C)(O)[C@@H](C)O)NC(=O)[C@H]5CSC(=N5)/C(=C/C)NC(=O)[C@H]([C@@H](C)O)NC(=O)c5csc(n5)[C@]3(CC2)NC(=O)[C@H](C)NC(=O)C(=C)NC(=O)[C@H](C)NC(=O)[C@H]([C@@H](C)CC)N[C@@H]2C=Cc3c([C@H](C)O)cc(nc3[C@H]2O)C(=O)O[C@@H]4C)n1)C(N)=O [Thiostrepton, reference compound]	15.09%	7.6485	–	–	–
Clc1ccc(CSC(Cn2ccnc2)c2ccc(Cl)cc2Cl)cc1 (stereo not shown) [Sulconazole nitrate, reference compound]	19.81%	11.0719	–	–	–
OCCN1CCN(CCCN2c3ccccc3Sc3ccc(Cl)cc32)CC1 [Perphenazine, reference compound]	12.07%	5.4640	–	–	–
COc1cc([C@@H]2c3cc4c(cc3[C@@H](O[C@@H]3O[C@@H]5CO[C@@H](C)O[C@H]5[C@H](O)[C@H]3O)[C@H]3COC(=O)[C@H]23)OCO4)cc(OC)c1O [Etoposide, reference compound]	39.92%	25.6406	–	–	–
O=C1C(Cl)=C(N2CCC(C(=O)N3CCOCC3)CC2)C(=O)c2ccccc21 [3-chloro-2-[4-(morpholine-4-carbonyl)-1-piperidyl]naphthalene-1,4-dione]	12.42%	5.7130	–	–	–
COC(=O)Nc1nc2ccc(Sc3ccccc3)cc2[nH]1 [Fenbendazole, reference compound]	4.46%	−0.0511	–	–	–
[O-][n+]1ccccc1[S-].[O-][n+]1ccccc1[S-].[Zn+2] [Pyrithione zinc, reference compound]	–	–	–	10.31%	4.1877
Cc1cc2c(C(C)C)c(O)c(O)c(C=O)c2c(O)c1-c1c(C)cc2c(C(C)C)c(O)c(O)c(C=O)c2c1O [Gossypol, reference compound]	–	3.1932	8.94%	–	–
CC1=CC(=O)c2ccccc2C1=O [Menadione, reference compound]	38.33%	24.4943	–	–	–
CC(C)(C)c1cc2cc(NS(=O)(=O)c3ccc(Cl)cc3)ccc2[nH]1 [N-(2-tert-butyl-(1H)-indol-5-yl)-4-chlorobenzenesulfonamide]	37.42%	23.8290	–	–	–
COc1ccc(S(=O)(=O)N(Cc2ccc(Cl)cc2)Cc2ccc3cc[nH]c3c2)cc1 [N-(4-chlorobenzyl)-N-[((1H)-indol-6-yl)methyl]-4-methoxybenzenesulfonamide]	9.23%	3.4074	–	–	–
Oc1ccc(Cl)cc1Cc1cc(Cl)ccc1O [Dichlorophene, reference compound]	12.27%	5.6065	–	–	–
O=C(CSC1=NNC(c2ccccn2)S1)c1cccc(F)c1 (stereo not shown) [1-(3-fluorophenyl)-2-[(5-pyridin-2-yl-4,5-dihydro-1,3,4-thiadiazol-2-yl)sulfanyl]ethanone]	25.37%	15.1024	–	–	–

Compound	% positive [1]	Z score [2]	% positive [3]	% positive	Z score
O=C(Nc1ccc([N+](=O)[O-])cc1Cl)c1cc(Cl)ccc1O [Niclosamide, reference compound]	42.32%	27.3834	–	–	–
O=C1C=C2C=C[C@@H]3C[C@@]2(O1)[C@H]1CCCCN31 [Securinine, reference compound]	–	7.6953	15.15%	–	–
[H]/N=C(\N/C(=N/[H])NCCCCCCNC(=N)NC(=N)Nc1ccc(Cl)cc1)Nc1ccc(Cl)cc1 [Chlorhexidine hydrochloride, reference compound]	25.83%	15.4338	–	–	–
CO[C@@H]1C[C@@H](C[C@H]2CC[C@H](C)[C@H]([C@@H](C)C(=O)O)O2)O[C@]2(O[C@](C)([C@H]3CC[C@@](C)([C@@H]4O[C@@H]([C@H]5O[C@@](O)(CO)[C@H](C)C[C@@H]5C)C[C@@H]4C)O3)C[C@H]2C)[C@@H]1C [Nigericin sodium, reference compound]	35.05%	22.1153	–	–	–
CSc1ccc2c(c1)C(N1CCN(C)CC1)Cc1ccccc1S2.O=C(O)/C=C\C(=O)O (stereo not shown) [Methiothepin maleate, reference compound]	9.08%	3.2976	–	–	–
CCN(CC)c1cc(-c2ccc(F)cc2)nc(-c2ccncc2)n1 [N,N-diethyl-6-(4-fluorophenyl)-2-pyridin-4-yl-pyrimidin-4-amine]	4.69%	0.1118	–	–	–
COc1cc(OC)c(CN2CC[C@H](NC(=O)c3ccc(-n4nc(C(C)(C)C)cc4C(C)(C)C)cc3)C2)c(OC)c1 [4-(3,5-di-tert-butyl-1H-pyrazol-1-yl)-N-[(3S)-1-(2,4,6-trimethoxybenzyl)pyrrolidin-3-yl]benzamide]	14.27%	7.0595	–	–	–
Clofilium tosylate [reference compound]	53.49%	35.4749	–	–	–
O=C(CCCN1CCC2(CC1)C(=O)NCN2c1ccccc1)c1ccc(F)cc1 [Spiperone, reference compound]	32.90%	20.5550	–	–	–
CN(C)CC/C=C1/c2ccccc2Sc2ccc(Cl)cc21 [Chlorprothixene hydrochloride, reference compound]	7.49%	2.1477	–	–	–
O=C(Nc1ccccc1)Nc1ccc(SCc2nc(OCC(F)(F)F)cc(OCC(F)(F)F)n2)cc1 [N-[4-[[[4,6-bis(2,2,2-trifluoroethoxy)pyrimidin-2-yl]methyl]thio]phenyl]-N′′-phenylurea]	39.26%	25.1654	–	–	–
COc1ccc(CCN2CCC(Nc3nc4ccccc4n3Cc3ccc(F)cc3)CC2)cc1 [Astemizole, reference compound]	7.37%	2.0598	–	–	–
Cc1cc(N)c2ccccc2[n+]1CCCCCCCCCC[n+]1c(C)cc(N)c2ccccc21 [Dequalinium chloride, reference compound]	30.24%	18.6318	–	–	–
CC[C@@]1(O)C[C@H](O[C@H]2C[C@H](N(C)C)[C@H](O[C@H]3C[C@H](O)[C@H](O[C@H]4CCC(=O)[C@H](C)O4)[C@H](C)O3)[C@H](C)O2)c2c(cc3c(c2O)C(=O)c2c(O)cccc2C3=O)[C@H]1C(=O)OC [Aclarubicin, reference compound]	–	4.5990	10.89%	–	–
COc1ccc2[nH]cc(CCNC(=O)OC[C@@H]3C[C@H]4CC[C@@H]3C4)c2c1 [(1R,2R,4S)-bicyclo[2.2.1]hept-2-ylmethyl[2-(5-methoxy-1H-indol-3-yl)ethyl]carbamate]	19.39%	10.7664	–	–	–
CCOC(=O)c1cc2cccc(NC(=O)c3ccccc3OC(C)=O)c2[nH]1 [7-[(2-acetoxybenzoyl)amino]-1H-indole-2-carboxylic acid, ethyl ester]	51.60%	34.1083	–	–	–
CO[C@@]12[C@H](COC(N)=O)C3=C(C(=O)C(C)=C(N)C3=O)N1C[C@@H]1N[C@@H]12 [Mitomycin C, reference compound]	42.52%	27.5299	–	–	–
Cc1cccn2c(=O)c3c(nc12)CCN(C(=O)c1ccc(C(C)(C)C)cc1)C3 [2-(4-tert-butylbenzoyl)-6-methyl-1,2,3,4-tetrahydro-11H-dipyrido-[1,2-a:4′,3′-d]pyrimidin-11-one]	19.38%	10.7588	–	–	–
CCCCCCCCCCCCCCCC[N+](C)(C)CCN(Cc1ccc(OC)cc1)c1ncccn1 [Thonzonium, reference compound]	9.65%	3.7078	–	–	–
CC(=O)Nc1ccc(S(=O)(=O)N(Cc2ccc3c(c2)CCO3)C2CC2)cc1 [N-(4-{[cyclopropyl(2,3-dihydro-1-benzofuran-5-ylmethyl)amino]sulfonyl}phenyl)acetamide]	14.84%	7.4706	–	–	–
